Test results published in patent publication US20110130369A1, “USE OF FTS FOR THE TREATMENT OF MYOCARDIAL ISCHEMIA/REPERFUSION INJURY” (RAMOT AT TEL-AVIV UNIVERSITY LTD., priority 2008, published 2011).

What was measured:
[1] = tested on: Ras and its downstream effectors; assay: Western immunoblotting / Ras-GTP pull-down of homogenates of isolated perfused hearts (ex vivo); design: species or system rat; conditions: FTS 1 μM, 30 minutes of reperfusion
Experimental: Hearts were obtained from FTS- and PBS-treated rats (LAD ligation experiments) and from isolated heart perfusion experiments. The hearts were homogenized in cold homogenization buffer containing protease inhibitors. Protein concentration was determined by the Bradford assay and samples containing 100 μg protein were used for determination of protein levels by Western immunoblotting using: pan-anti-Ras Ab (Ab03; Santa Cruz, Calif.), anti JNK Ab (Cell Signaling; Danvers, Mass.), anti p-JNK Ab (Cell Signaling), anti P38 Ab (Cell Signaling), anti p-P38 Ab (Cell Signaling), anti Mst1 Ab (Cell Signaling), and anti p-Mst1 Ab (Cell Signaling). Enhanced chemiluminescence (ECL) and densitometric analysis were performed as detailed previously [[…], Weisz […], Paz A, Marciano D, Egozi Y, et al., Biochemistry 37(5):1306-14 (1998)1. The hearts were prepared as described above. Samples containing 0.5 mg protein used for determination of levels of active GTP-bound Ras by the glutathione S-transferase-RBD pull-down assay followed by Western immunoblotting with pan-anti-Ras Ab as detailed previously [Jansen […], Mayer […], et al., Proc Natl Acad Sci U.S.A. 96(24):14019-24 (1999)]. To examine the effect of FTS on Ras signaling on its prominent downstream effectors, Western immunoblotting using homogenates of the isolated perfused hearts was performed. Quantitative analysis of the immunoblots disclosed a reduction in levels of active Ras (Ras-GTP) and p-Jnk in hearts of the FTS group (p<0.05) at 30 minutes of reperfusion.

Male Lewis rats [2] = assay: LAD artery ligation I/R model, histopathology (H&E and Masson Trichrome), area of irreversible damage; conditions: 5 mg/kg i.p.
Experimental: (§2) At the age of 12 weeks, rats were anesthetized (mixture of 8 mg/100 g ketamine, 5 mg/100 g xylazine), intubated, and ventilated with a Harvard Rodent Ventilator Model 383 (respiratory rate: 50/min, respiratory volume: 2.5 mL). A rectal thermocouple was used to continuously monitor body temperature, which was maintained at 37° C. using a heating pad. A left thoracotomy in the third intercostal space was performed to expose the heart. The location of the left descending coronary artery was identified and then occluded with a 6-0 silk suture. Occlusion was confirmed by monitoring the pallor of the region at risk, and an electrocardiogram was used to observe changes such as widening of QRS and ST-T segment elevation. After 30 minutes, the occlusion was removed, the thorax was closed, and rats were returned to their cages at the local vivarium.
FTS was stored in chloroform, which was evaporated under a stream of nitrogen immediately before use. The powder was dissolved in absolute ethanol and diluted to the desired concentration in sterile PBS made basic with NaOH. […]
Hearts were removed and fixed in 4% formalin, then embedded in paraffin. […] Slides were then assessed in a blinded fashion by a pathologist using light microscopy and scored for the percentage of LVP involvement and collagen deposition. Scar area was evaluated using data from both H&E and Masson staining. […]

[3] = tested on: Ras and its downstream effectors; assay: Western immunoblotting / Ras-GTP pull-down of hearts from LAD ligation rats (in vivo); design: species or system rat; conditions: Protocol A, 5 mg/kg
isolated rat heart [4] = assay: Enzymatic leakage of CK and LDH into the coronary effluent of isolated perfused hearts; conditions: FTS 1 μM, at 1 minute and 30 minutes of reperfusion
Experimental: (§1) Rats were heparinized (500 U/kg) and anesthetized (i.p.) with ether. The hearts were quickly removed, the aorta was cannulated and the heart perfused in retrograde according to Langendorff at a pressure of 96 cmH2O with oxygenated Krebs-Henseleit bicarbonate buffer solution (KHB) containing (mM): 118 NaCl, 2.4 KCl, 1.2 MgSO4, 7×H2O, 2.5 CaCl2, 5 EDTA, 1.2 KH2PO4, 25 NaHCO3, 4 glucose at 37° C. [[…], Offen D, Maulik N, Otani H, Barhum Y, et al., Am J Physiol Heart Circ Physiol 284:H2351-59 (2003)]. The isolated heart was stabilized for 20 minutes at a constant perfusion pressure and then subjected to 30 minutes of ischemia followed by 30 minutes of reperfusion. Ischemia was created by clamping the aortic cannula. During reperfusion, hearts were given KHB (buffer) with FTS or KHB only. The temperature of the heart (measured in the right ventricle) was maintained at 37°±0.2° C. throughout the experiment by a micro-thermocouple connected to a digital thermometer (Webster Laboratories […], Calif.). In all stages of the protocol, the left ventricular developed pressure (LVP), the rate of pressure development and relaxation (±dP/dt) and the heart rate (HR), were continuously recorded by the CODAS data acquisition system (San Diego, Calif.). Rate pressure product (RPP), an index of myocardial workload, was calculated by multiplying LVP by HR. […]

Male Lewis rats [5] = assay: LAD artery ligation I/R model, echocardiography at day 14; conditions: 5 mg/kg i.p.
Experimental: as §2
FTS was stored in chloroform, which was evaporated under a stream of nitrogen immediately before use. The powder was dissolved in absolute ethanol and diluted to the desired concentration in sterile PBS made basic with NaOH. Carrier solution (1000 μl) containing 1.35 mg of FTS (5 mg/kg) was injected intraperitoneally (i.p.) into each rat. Control solution was prepared at the same time starting with PBS and absolute ethanol.
LAD ligation was performed in two groups of rats. Group 1 received 5 mg/kg FTS and group 2 received PBS according to two protocols: (A) FTS or PBS was administered 7 days on a daily basis before LAD ligation, locally during occlusion opening (0.5 μM/100 μl), and continued for 14 days, every other day [prophylactic regimen] (B) FTS or PBS was administered 14 days after LAD ligation every other day [treatment regimen].
To examine the effect of systemic FTS treatment on the heart, in vivo experiments were conducted according two protocols.

isolated rat heart [6] = assay: Isolated heart perfusion (Langendorff), 30 min ischemia / 30 min reperfusion, hemodynamic recovery; conditions: FTS 1 μM in perfusate
Experimental: FTS was provided by Concordia Pharmaceuticals, Inc. (Ft. Lauderdale, Fla.). […] The powder was dissolved in DMSO and diluted with Krebs-Henseleit bicarbonate buffer solution (KHB) to yield a 1 μM drug solution containing 10% DMSO. Rats were heparinized (500 U/kg) and anesthetized (i.p.) with ether. The hearts were quickly removed, the aorta was cannulated and the heart perfused in retrograde according to Langendorff at a pressure of 96 cmH2O with oxygenated Krebs-Henseleit bicarbonate buffer solution (KHB) containing (mM): 118 NaCl, 2.4 KCl, 1.2 MgSO4, 7×H2O, 2.5 CaCl2, 5 EDTA, 1.2 KH2PO4, 25 NaHCO3, 4 glucose at 37° C. [[…], Offen D, Maulik N, Otani H, Barhum Y, et al., Am J Physiol Heart Circ Physiol 284:H2351-59 (2003)]. The isolated heart was stabilized for 20 minutes at a constant perfusion pressure and then subjected to 30 minutes of ischemia followed by 30 minutes of reperfusion. Ischemia was created by clamping the aortic cannula. During reperfusion, hearts were given KHB (buffer) with FTS or KHB only. The temperature of the heart (measured in the right ventricle) was maintained at 37°±0.2° C. throughout the experiment by a micro-thermocouple connected to a digital thermometer (Webster Laboratories […], Calif.). In all stages of the protocol, the left ventricular developed pressure (LVP), the rate of pressure development and relaxation (±dP/dt) and the heart rate (HR), were continuously recorded by the CODAS data acquisition system (San Diego, Calif.). Rate pressure product (RPP), an index of myocardial workload, was calculated by multiplying LVP by HR. Coronary effluent was collected at one-minute intervals before and after ischemia, at various time points (1, 10 and 30 minutes reperfusion) and analyzed for CK activity (Boehringer Mannheim). Results are expressed as means±standard error of the mean (SE). Values during stabilization period were defined as 100%. A statistical difference between the groups was assessed by analysis of variance (ANOVA) with repeated measurements using the multiple comparison option of Duncan. If differences were established, values were compared using Student's t-test: p<0.05 was considered significant. To determine the protective effects of Ras protein inhibition on cardiac damage derived from I/R injury ex vivo, we first determined the baseline absolute values of the rats and cardiac function prior to ischemia in FTS (1 μM) and control groups. […] Values are expressed as mean±SE. Next, we perfused the isolated rat hearts with FTS (1 μM) in the Langendorff system after 30 minutes of ischemia (FIG. 1). FTS had no effect on the CF recovery in the FTS vs. control group (FIG. 1A) during the 30 minutes of reperfusion.

isolated rat heart [7] = assay: Measurement of irreversible ischemic injury by TTC staining of isolated perfused hearts; conditions: FTS 1 μM perfusion, 30 minutes ischemia and 30 minutes of reperfusion; control 23.7±4%, p<0.05; mean±SE
Experimental: as §1

[8] = human, in vivo; cited from earlier work
[9] = Protocol A (prophylactic regimen), p<0.05
[10] = reperfusion after 30 minutes of ischemia, p<0.05

Q: What does the source list for `CC(C)=CCC/C(C)=C/CC/C(C)=C/CSc1ccccc1C(=O)O` [FTS, S-farnesylthiosalicylic acid]?
A: Jnk levels vs. control [1]: No differences; Mst1 levels vs. control [1]: No differences; P38 levels vs. control [1]: No differences; p-Mst1 levels vs. control [1]: No differences; p-P38 levels vs. control [1]: No differences; total Ras levels vs. control [1]: No differences; levels of active Ras (Ras-GTP) vs. control ([1]; p<0.05): reduction; levels of p-Jnk vs. control ([1]; p<0.05): reduction; area of irreversible damage (percentage of LV wall) (Male Lewis rats [2]; Protocol A (prophylactic regimen), control I/R 36±7%, mean±SE): 17.25±2.5%; area of irreversible damage vs. control I/R (Male Lewis rats [2]; Protocol B (treatment regimen)): did not show a significant difference; levels of Jnk vs. control [3]: did not differ; levels of Mst vs. control [3]: did not differ; levels of P38 vs. control [3]: did not differ; levels of p-Jnk vs. control [3]: did not differ; levels of p-P38 vs. control [3]: did not differ; levels of active Ras (Ras-GTP) vs. control ([3]; p<0.05): reduction; levels of p-Mst1 vs. control ([3]; p<0.05): reduction; levels of total Ras vs. control ([3]; p<0.05): reduction; CK release to the coronary effluent vs. control (isolated rat heart [4]): lower in the FTS group compared with control group, but did not reach statistical significance; LDH release to the coronary effluent vs. control (isolated rat heart [4]): lower in the FTS group compared with control group, but did not reach statistical significance; hemodynamic parameters of cardiac function vs. control I/R (Male Lewis rats [5]; Protocol A (prophylactic regimen)): significant improvement in most hemodynamic parameters; left ventricular end-diastolic area (LVEDA) vs. control I/R (Male Lewis rats [5]; [9]): significantly better; left ventricular end-systolic area (LVESA) vs. control I/R (Male Lewis rats [5]; [9]): significantly better; septum diameter (Male Lewis rats [5]; Protocol A (prophylactic regimen), control I/R 0.1±0.01, p<0.05, mean±SE): 0.14±0.01 cm; fractional shortening of area (Male Lewis rats [5]; Protocol A (prophylactic regimen), control I/R 38±4%, p<0.05, mean±SE): 55±6%; cardiac hemodynamic function vs. control I/R (Male Lewis rats [5]; Protocol B (treatment regimen, 14 days post-LAD ligation)): no improvement; CF (coronary flow) recovery vs. control (isolated rat heart [6]; 30 minutes of reperfusion after 30 minutes of ischemia): no effect; recovery of HR vs. control (isolated rat heart [6]; reperfusion after 30 minutes of ischemia): no significant difference; LVP recovery vs. control (isolated rat heart [6]; [10]): significantly better; ±dP/dt recovery vs. control (isolated rat heart [6]; [10]): significantly better; regions of irreversible ischemic injury (TTC-negative area, percentage of the entire area of the section) (isolated rat heart [7]): 12.7±2%; tolerability / dose-limiting toxicities [8]: well-tolerated compound without dose-limiting toxicities
